# From US8796289B2 (AbbVie Inc., priority 2011, dated 2014)
# Biological target: GST-tagged-Wee1 kinase (Homo sapiens, UniProt P30291)
# Assay: Wee1 time-resolved fluorescence equilibrium binding assay (displacement of Oregon Green-labeled ATP-competitive kinase probe)
# Procedure: Wee1 kinase was assayed using a time-resolved fluorescence equilibrium binding assay monitoring displacement of a rapidly reversible Oregon Green-labeled ATP-competitive kinase probe (N-(2-(2-(2-(4-(4-(5-chloro-4-(2-(1-hydroxycyclobutyl)thiazol-5-yl)-1H-pyrrolo[2,3-b]pyridin-2-yl)phenyl)piperazin-1-yl)ethoxy)ethoxy)ethyl)-2′,7′-difluoro-3′,6′-dihydroxy-3-oxo-3H-spiro[isobenzofuran-1,9′-xanthene]-5-carboxamide) by competitive Wee1 inhibitors.
# Sequence of GST-tagged-Wee1 kinase (P30291 whole entry): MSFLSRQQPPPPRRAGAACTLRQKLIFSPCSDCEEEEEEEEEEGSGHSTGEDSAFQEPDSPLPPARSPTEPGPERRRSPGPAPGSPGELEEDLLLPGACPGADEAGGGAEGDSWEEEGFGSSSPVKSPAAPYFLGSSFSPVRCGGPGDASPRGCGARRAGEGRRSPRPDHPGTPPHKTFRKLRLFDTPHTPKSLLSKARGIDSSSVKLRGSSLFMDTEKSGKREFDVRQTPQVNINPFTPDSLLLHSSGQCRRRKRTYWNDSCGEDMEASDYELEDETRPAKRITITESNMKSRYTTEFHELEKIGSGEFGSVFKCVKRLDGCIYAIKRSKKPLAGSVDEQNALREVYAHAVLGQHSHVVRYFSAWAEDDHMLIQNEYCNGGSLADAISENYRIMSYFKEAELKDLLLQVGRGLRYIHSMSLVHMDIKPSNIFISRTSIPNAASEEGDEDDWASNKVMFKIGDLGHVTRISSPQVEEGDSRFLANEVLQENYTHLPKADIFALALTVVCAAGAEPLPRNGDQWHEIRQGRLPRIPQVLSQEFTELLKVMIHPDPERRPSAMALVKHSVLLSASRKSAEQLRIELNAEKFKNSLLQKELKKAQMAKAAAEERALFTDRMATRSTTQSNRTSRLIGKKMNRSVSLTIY
row,SMILES,Ki
1,"CN1CCN(c2ccc(Nc3ncc4c(=O)n(-c5ccccc5)nc(-c5cccc(F)c5)c4n3)cc2)CC1 [Example 82, 8-(3-fluorophenyl)-2-{[4-(4-methylpiperazin-1-yl)phenyl]amino}-6-phenylpyrimido[4,5-d]pyridazin-5(6H)-one]",9 nM
2,"CN1CCN(c2ccc(Nc3ncc4c(=O)n(-c5ccccc5Cl)nc(-c5cccc(F)c5)c4n3)cc2)CC1 [Example 83, 6-(2-chlorophenyl)-8-(3-fluorophenyl)-2-{[4-(4-methylpiperazin-1-yl)phenyl]amino}pyrimido[4,5-d]pyridazin-5(6H)-one]",0.2 nM
3,"CN1CCN(c2ccc(Nc3ncc4c(=O)n(-c5c(Cl)cccc5Cl)nc(-c5cccc(F)c5)c4n3)cc2)CC1 [Example 84, 6-(2,6-dichlorophenyl)-8-(3-fluorophenyl)-2-{[4-(4-methylpiperazin-1-yl)phenyl]amino}pyrimido[4,5-d]pyridazin-5(6H)-one]",0.1 nM
4,"CN1CCN(c2ccc(Nc3ncc4c(=O)n(-c5ccccc5)nc(-c5cnn(C)c5)c4n3)cc2)CC1 [Example 85, 2-{[4-(4-methylpiperazin-1-yl)phenyl]amino}-8-(1-methyl-1H-pyrazol-4-yl)-6-phenylpyrimido[4,5-d]pyridazin-5(6H)-one]",24.7 nM
5,"CN1CCN(c2ccc(Nc3ncc4c(=O)n(-c5c(Cl)cccc5Cl)nc(-c5cnn(C)c5)c4n3)cc2)CC1 [Example 87, 6-(2,6-dichlorophenyl)-2-{[4-(4-methylpiperazin-1-yl)phenyl]amino}-8-(1-methyl-1H-pyrazol-4-yl)pyrimido[4,5-d]pyridazin-5(6H)-one]",0.1 nM
6,"CN1CCN(c2ccc(Nc3ncc4c(=O)n(-c5c(Cl)cccc5Cl)nc(-c5cccc(O)n5)c4n3)cc2)CC1 [Example 88, 6-(2,6-dichlorophenyl)-8-(6-hydroxypyridin-2-yl)-2-{[4-(4-methylpiperazin-1-yl)phenyl]amino}pyrimido[4,5-d]pyridazin-5(6H)-one]",5 nM
7,"CN1CCN(c2ccc(Nc3ncc4c(=O)n(-c5c(Cl)cccc5Cl)nc(-c5cccc(C#N)c5)c4n3)cc2)CC1 [Example 89, 3-[6-(2,6-dichlorophenyl)-2-{[4-(4-methylpiperazin-1-yl)phenyl]amino}-5-oxo-5,6-dihydropyrimido[4,5-d]pyridazin-8-yl]benzonitrile]",0.07 nM
8,"CN1CCN(c2ccc(Nc3ncc4c(=O)n(-c5c(Cl)cccc5Cl)nc(-c5cccc(N(C)C)c5)c4n3)cc2)CC1 [Example 90, 6-(2,6-dichlorophenyl)-8-[3-(dimethylamino)phenyl]-2-{[4-(4-methylpiperazin-1-yl)phenyl]amino}pyrimido[4,5-d]pyridazin-5(6H)-one]",0.2 nM
9,"CN1CCN(c2ccc(Nc3ncc4c(=O)n(-c5c(Cl)cccc5Cl)nc(-c5cccc(-c6c[nH]cn6)c5)c4n3)cc2)CC1 [Example 91, 6-(2,6-dichlorophenyl)-8-[3-(1H-imidazol-4-yl)phenyl]-2-{[4-(4-methylpiperazin-1-yl)phenyl]amino}pyrimido[4,5-d]pyridazin-5(6H)-one]",0.3 nM
10,"CN1CCN(c2ccc(Nc3ncc4c(=O)n(-c5c(Cl)cccc5Cl)nc(-c5cccc(-c6ccc[nH]6)c5)c4n3)cc2)CC1 [Example 92, 6-(2,6-dichlorophenyl)-2-{[4-(4-methylpiperazin-1-yl)phenyl]amino}-8-[3-(1H-pyrrol-2-yl)phenyl]pyrimido[4,5-d]pyridazin-5(6H)-one]",8 nM
11,"CN1CCN(c2ccc(Nc3ncc4c(=O)n(-c5c(Cl)cccc5Cl)nc(-c5cccc(N6CCCCC6=O)c5)c4n3)cc2)CC1 [Example 93, 6-(2,6-dichlorophenyl)-2-{[4-(4-methylpiperazin-1-yl)phenyl]amino}-8-[3-(2-oxopiperidin-1-yl)phenyl]pyrimido[4,5-d]pyridazin-5(6H)-one]",0.1 nM
12,"CN1CCN(c2ccc(Nc3ncc4c(=O)n(-c5ccccc5Cl)nc(-c5ccoc5)c4n3)cc2)CC1 [Example 94, 6-(2-chlorophenyl)-8-(3-furyl)-2-{[4-(4-methylpiperazin-1-yl)phenyl]amino}pyrimido[4,5-d]pyridazin-5(6H)-one]",0.5 nM
13,"CN1CCN(c2ccc(Nc3ncc4c(=O)n(-c5ccccc5Cl)nc(-c5ccsc5)c4n3)cc2)CC1 [Example 96, 6-(2-chlorophenyl)-2-{[4-(4-methylpiperazin-1-yl)phenyl]amino}-8-(3-thienyl)pyrimido[4,5-d]pyridazin-5(6H)-one]",0.2 nM
14,"CN1CCN(c2ccc(Nc3ncc4c(=O)n(-c5c(Cl)cccc5Cl)nc(-c5ccsc5)c4n3)cc2)CC1 [Example 97, 6-(2,6-dichlorophenyl)-2-{[4-(4-methylpiperazin-1-yl)phenyl]amino}-8-(3-thienyl)pyrimido[4,5-d]pyridazin-5(6H)-one]",0.06 nM
15,"CN1CCN(c2ccc(Nc3ncc4c(=O)n(-c5ccccc5Cl)nc(-c5cccnc5)c4n3)cc2)CC1 [Example 98, 6-(2-chlorophenyl)-2-{[4-(4-methylpiperazin-1-yl)phenyl]amino}-8-(pyridin-3-yl)pyrimido[4,5-d]pyridazin-5(6H)-one]",0.5 nM
16,"CN1CCN(c2ccc(Nc3ncc4c(=O)n(-c5c(Cl)cccc5Cl)nc(-c5cccnc5)c4n3)cc2)CC1 [Example 99, 6-(2,6-dichlorophenyl)-2-{[4-(4-methylpiperazin-1-yl)phenyl]amino}-8-(pyridin-3-yl)pyrimido[4,5-d]pyridazin-5(6H)-one]",0.09 nM
17,"CN1CCN(c2ccc(Nc3ncc4c(=O)n(-c5ccccc5)nc(-c5cccnc5)c4n3)cc2)CC1 [Example 100, 2-{[4-(4-methylpiperazin-1-yl)phenyl]amino}-6-phenyl-8-(pyridin-3-yl)pyrimido[4,5-d]pyridazin-5(6H)-one]",14 nM
18,"CN1Cc2cc(Nc3ncc4c(=O)n(-c5c(Cl)cccc5Cl)nc(-c5cccnc5)c4n3)ccc2C2(CC2)C1 [Example 101, 6-(2,6-dichlorophenyl)-2-[(2′-methyl-2′,3′-dihydro-1′H-spiro[cyclopropane-1,4′-isoquinolin]-7′-yl)amino]-8-(pyridin-3-yl)pyrimido[4,5-d]pyridazin-5(6H)-one]",0.02 nM
19,"CN1CCN(c2ccc(Nc3ncc4c(=O)n(-c5ccccc5)nc(-c5ccccn5)c4n3)cc2)CC1 [Example 102, 2-{[4-(4-methylpiperazin-1-yl)phenyl]amino}-6-phenyl-8-(pyridin-2-yl)pyrimido[4,5-d]pyridazin-5(6H)-one]",6 nM
20,"CN1CCN(c2ccc(Nc3ncc4c(=O)n(-c5c(Cl)cccc5Cl)nc(-c5ccccn5)c4n3)cc2)CC1 [Example 103, 6-(2,6-dichlorophenyl)-2-{[4-(4-methylpiperazin-1-yl)phenyl]amino}-8-(pyridin-2-yl)pyrimido[4,5-d]pyridazin-5(6H)-one]",0.2 nM
21,"CN1Cc2cc(Nc3ncc4c(=O)n(-c5c(Cl)cccc5Cl)nc(-c5ccccn5)c4n3)ccc2C2(CC2)C1 [Example 104, 6-(2,6-dichlorophenyl)-2-[(2′-methyl-2′,3′-dihydro-1′H-spiro[cyclopropane-1,4′-isoquinolin]-7′-yl)amino]-8-(pyridin-2-yl)pyrimido[4,5-d]pyridazin-5(6H)-one]",0.6 nM
22,"CN1CCN(c2ccc(Nc3ncc4c(=O)n(-c5c(Cl)cccc5Cl)nc(C5CCCNC5)c4n3)cc2)CC1 (stereo not drawn) [Example 105, 6-(2,6-dichlorophenyl)-2-{[4-(4-methylpiperazin-1-yl)phenyl]amino}-8-(piperidin-3-yl)pyrimido[4,5-d]pyridazin-5(6H)-one]",4 nM
23,"Cc1ccccc1-n1nc(-c2ccco2)c2nc(Nc3ccc(CN(C)C)cc3)ncc2c1=O [Example 106, 2-({4-[(dimethylamino)methyl]phenyl}amino)-8-(2-furyl)-6-(2-methylphenyl)pyrimido[4,5-d]pyridazin-5(6H)-one]",5 nM
24,"Cc1ccccc1-n1nc(-c2ccco2)c2nc(Nc3ccc(N4CCN(C(C)C)CC4)cc3)ncc2c1=O [Example 107, 8-(2-furyl)-2-{[4-(4-isopropylpiperazin-1-yl)phenyl]amino}-6-(2-methylphenyl)pyrimido[4,5-d]pyridazin-5(6H)-one]",1 nM
25,"Cc1ccccc1-n1nc(-c2ccco2)c2nc(Nc3ccc(S(=O)(=O)N4CCOCC4)cc3)ncc2c1=O [Example 108, 8-(2-furyl)-6-(2-methylphenyl)-2-{[4-(morpholin-4-ylsulfonyl)phenyl]amino}pyrimido[4,5-d]pyridazin-5(6H)-one]",150 nM
26,"Cc1ccccc1-n1nc(-c2ccccc2)c2nc(Nc3ccc(S(=O)(=O)N4CCOCC4)cc3)ncc2c1=O [Example 109, 6-(2-methylphenyl)-2-{[4-(morpholin-4-ylsulfonyl)phenyl]amino}-8-phenylpyrimido[4,5-d]pyridazin-5(6H)-one]",> 3140 nM
27,"C=CCn1nc(-c2ccccc2)c2nc(Nc3ccc(S(=O)(=O)N4CCOCC4)cc3)ncc2c1=O [Example 110, 6-allyl-2-{[4-(morpholin-4-ylsulfonyl)phenyl]amino}-8-phenylpyrimido[4,5-d]pyridazin-5(6H)-one]",> 3140 nM
28,"Cc1ccccc1-n1nc(-c2ccccc2)c2nc(Nc3ccc(CN(C)C)cc3)ncc2c1=O [Example 111, 2-({4-[(dimethylamino)methyl]phenyl}amino)-6-(2-methylphenyl)-8-phenylpyrimido[4,5-d]pyridazin-5(6H)-one]",2.5 nM
29,"C=CCn1nc(-c2ccco2)c2nc(Nc3ccc(N4CCN(C(C)C)CC4)cc3)ncc2c1=O [Example 112, 6-allyl-8-(2-furyl)-2-{[4-(4-isopropylpiperazin-1-yl)phenyl]amino}pyrimido[4,5-d]pyridazin-5(6H)-one]",14 nM
30,"COc1cc(Nc2ncc3c(=O)n(-c4ccccc4C)nc(-c4ccccc4)c3n2)ccc1N1CCN(C(C)C)CC1 [Example 113, 2-{[4-(4-isopropylpiperazin-1-yl)-3-methoxyphenyl]amino}-6-(2-methylphenyl)-8-phenylpyrimido[4,5-d]pyridazin-5(6H)-one]",0.4 nM
